Converted amounts (≈) assume the structure as drawn. The source made the active and inactive calls. The calls are words filed in the database; no cut-off is given here. Starred links: 1 amine or outer side, 2 acyl side, 3 side chain; linkers in the order of their positions; H or OH if unused. Non-standard residues stand in square brackets, D forms with d. Residues, ends and D or L forms follow the SMILES beside them. X1 = N=C(N)N(O)CCC[C@H](N[*:1])C(=O)[*:2]
Legend:
Acinetobacter baumannii = test: Antibacterial activity against Acinetobacter baumannii MB5973 measured after overnight incubation; assay type: functional
Klebsiella pneumoniae = test: Antibacterial activity against Klebsiella pneumoniae ATCC 700603 measured after overnight incubation; assay type: functional, organism-based
Pseudomonas aeruginosa = test: Antibacterial activity against Pseudomonas aeruginosa MB5919 measured after overnight incubation; assay type: functional, organism-based
Escherichia coli = test: Antibacterial activity against Escherichia coli ATCC 25922 measured after overnight incubation; assay type: functional, organism-based

| MIC (Acinetobacter baumannii) [µg/mL] | SMILES | Activity (Klebsiella pneumoniae) | Activity (Pseudomonas aeruginosa) | Activity (Escherichia coli) |
| --- | --- | --- | --- | --- |
| 16 (≈ 22.3 µM) | CC(C)C[C@@H]1NC(=O)[C@@H](Cc2ccccc2)NC(=O)[C@H](CCCN(O)C(=N)N)NC(=O)[C@H](Cc2c[nH]c3ccccc23)NC(=O)[C@@H](C(C)C)NC1=O | inactive | inactive | inactive |
| 16 (≈ 23.4 µM) | CC(C)C[C@@H]1NC(=O)[C@@H](CC(C)C)NC(=O)[C@H](CCCN(O)C(=N)N)NC(=O)[C@H](Cc2c[nH]c3ccccc23)NC(=O)[C@@H](C(C)C)NC1=O (cyclo(L[dV]W[X1][dL])) | inactive | inactive | inactive |
